Columns and labels:
[1] = tested on: ovariectomized (OVX) Sprague-Dawley rats; assay: Vaginal histology and histomorphometry after 2 weeks vaginal suppositories; format: in vivo, rat; conditions: vaginal suppositories 2 weeks
Experimental: Ten to 12-weeks old female ovariectomized (OVX) Sprague-Dawley rats were utilized for the experiments. The animals were acclimatized to the environmental conditions before starting the experiment. The animals were housed individually and were allowed free access to water and rodent food. […] The suppositories were prepared according to the fusion method, using a polypeg suppository base ([…]., USA). […] Using a microwave, the suppository base was melted in a small beaker for 3 min and then transferred and kept into a water bath at a temperature of 55° C. The proper amount of above reagent was added to the liquefied base and meticulously crushed with a smooth rounded-end glass rod for about 20 min to make the solution to be even and clear. A pipette tip was used to suck some amount of solution and push it into a plastic tube with a diameter of 3.5 mm, and the tube was immediately left on the flat surface of an ice bucket. The suppository turned to white in color when it was solid. The moulded suppository was then pushed out of the tube using a round rod. […] After 30 min of cooling at room temperature, the suppositories were stored at 4° C. in a closed chamber until use. They were left to reach room temperature before use. The day after the last treatment the rats were overnight fasted and then sacrificed. Macroscopic measurement (genital hiatus, vaginal length) were taken and the vagina was dissected out carefully to avoid any injury to the vagina. The mid section of the vagina was utilized for histology (H and E stain, Masson's trichrome stain) and immunofluorescence and the rest of the vagina was used for RNA extraction and RT-PCR. […] For each animal, a 4 μm-thick paraffin section was cut and stained with haematoxylineosin and with Masson's trichrome stain for morphological examination. […] The cornification was determined by the presence of a keratin layer on the vaginal epithelium. Measurements of the different vaginal layers were performed on the fifth segment of the vagina, which is approximately halfway between the middle region and the portio vaginalis uteri. […] Images were captured with a color digital camera and quantified using ImageJ software was used. […] The thickness of the lamina propria was obtained by deducting the thickness of the epithelium and muscularis from total vaginal thickness.

[2] = tested on: rat vaginal Col1a1, Col3a1, Col5a1 mRNA; assay: qRT-PCR of vaginal collagen gene expression after 2 weeks vaginal suppositories; format: in vivo; conditions: OVX rats, vaginal suppositories 2 weeks, mean±SD
Text: Ten to 12-weeks old female ovariectomized (OVX) Sprague-Dawley rats were utilized for the experiments. The animals were acclimatized to the environmental conditions before starting the experiment. The animals were housed individually and were allowed free access to water and rodent food. Two weeks after the ovariectomy rats (n=36) were divided into five groups: control (receiving placebo suppositories, n=8), Zinc (receiving zinc sulfate containing suppositories, n=8), GW (receiving GW501516 containing suppositories, n=8), Zinc with GW (receiving Zinc with GW 501516 containing suppositories, n=8) and Estradiol (receiving estradiol containing suppositories, n=4).
The suppositories were prepared according to the fusion method, using a polypeg suppository base (MEDISCA, N.Y., USA). […] Using a microwave, the suppository base was melted in a small beaker for 3 min and then transferred and kept into a water bath at a temperature of 55° C. The proper amount of above reagent was added to the liquefied base and meticulously crushed with a smooth rounded-end glass rod for about 20 min to make the solution to be even and clear. A pipette tip was used to suck some amount of solution and push it into a plastic tube with a diameter of 3.5 mm, and the tube was immediately left on the flat surface of an ice bucket. The suppository turned to white in color when it was solid. The moulded suppository was then pushed out of the tube using a round rod. The moulded suppository was cut using a razor blade to a length of 1.2 cm each, which was calibrated to equal a volume of 50±5 μl per each suppository. After 30 min of cooling at room temperature, the suppositories were stored at 4° C. in a closed chamber until use. They were left to reach room temperature before use.
Total RNA was isolated from 20 mg of vaginal rat tissue in each experimental rat group using the RNeasy Mini kit (Qiagen) according to the manufacturer's specifications. For each total RNA preparation, DNase digestion was performed to remove contaminating genomic DNA. Total RNA samples from each tissue were quantified and evaluated for RNA integrity by the Agilent Bioanalyzer 2100 (Applied Biosystems, Foster City Calif., USA). Following RNA extraction, cDNA was reverse transcribed from ˜500 ng of each total RNA preparation using the qScript cDNA synthesis kit (Quanta Biosciences, Gaithersburg Md., USA). Finally, cDNA samples were used to perform gene expression analysis by qRT-PCR using SYBR Green technology on the RealPlex EP Mastercycler (Eppendorf, Germany) of five genes with known roles in vaginal tissue reconstruction: Collagen IaI (col 1a1), Collagen IIIaI (col 3a1), Collagen VaI (col 5a1), Elastin (eln), Tensin I (tns-1). Glyceraldehyde-3 Phosphate Dehydrogenase (gapdh) was used as a positive control to normalize the expression of each gene. Each qRT-PCR reaction was run in triplicate using Perfecta SYBR Green Supermix (Quanta Biosciences, Gaithersburg Md., USA) in 25 μL reaction volumes using a final concentration of 300 nM forward and reverse primers. For each of the genes analyzed in this study, primers were designed using Primer-BLAST software (NCBI) and synthesized by IDT Technologies (San Diego, Calif.).

[3] = tested on: rat vaginal Collagen I, Collagen III, Collagen V protein; assay: Immunofluorescence of vaginal collagen protein expression after 2 weeks vaginal suppositories; format: in vivo; conditions: OVX rats, vaginal suppositories 2 weeks, mean±SD
Experimental: Ten to 12-weeks old female ovariectomized (OVX) Sprague-Dawley rats were utilized for the experiments. The animals were acclimatized to the environmental conditions before starting the experiment. The animals were housed individually and were allowed free access to water and rodent food. […] The suppositories were prepared according to the fusion method, using a polypeg suppository base ([…]., USA). […] Using a microwave, the suppository base was melted in a small beaker for 3 min and then transferred and kept into a water bath at a temperature of 55° C. The proper amount of above reagent was added to the liquefied base and meticulously crushed with a smooth rounded-end glass rod for about 20 min to make the solution to be even and clear. A pipette tip was used to suck some amount of solution and push it into a plastic tube with a diameter of 3.5 mm, and the tube was immediately left on the flat surface of an ice bucket. The suppository turned to white in color when it was solid. The moulded suppository was then pushed out of the tube using a round rod. […] After 30 min of cooling at room temperature, the suppositories were stored at 4° C. in a closed chamber until use. They were left to reach room temperature before use. The day after the last treatment the rats were overnight fasted and then sacrificed. Macroscopic measurement (genital hiatus, vaginal length) were taken and the vagina was dissected out carefully to avoid any injury to the vagina. The mid section of the vagina was utilized for histology (H and E stain, Masson's trichrome stain) and immunofluorescence and the rest of the vagina was used for RNA extraction and RT-PCR. Samples were incubated with three different antibodies, collagen I, III and anti-actin or collagen I and V and anti-actin. Frozen tissues samples were cut into sections of 6 μm and fixed for 10 min with acetone, followed by five washes of phosphate-buffered saline (PBS). […] After that, sections were incubated with the secondary antibody for one hour in the dark, at room temperature, followed by five washes of PBS. […] Alexa Fluor 405 Goat Anti-Mouse IgG (1:400) (Invitrogen); Cy3-AffiniPure Goat Anti-Mouse IgM (1:400) (Jackson ImmunoResearch Laboratories, West Grove, Pa.); Alexa Fluor 647 (1;200) phalloidin (Invitrogen). […] Four images were obtained per section. Images were capture with an Orca II-ERG 12 bitt CCD camera in a Zeiss Apotome microscope with a 20× objective. The data was analyzed using Matamorph version 7.7.4 software. Results are represented as mean pixel intensity ratios per square area.

[4] = tested on: ovariectomized (OVX) Sprague-Dawley rats; assay: Macroscopic measurements (genital hiatus, vaginal length) after 2 weeks vaginal suppositories; format: in vivo, rat; conditions: vaginal suppositories 2 weeks (20 μM zinc sulfate, 10 nM GW501516, 0.01% estradiol), mean±SD
Experimental: Ten to 12-weeks old female ovariectomized (OVX) Sprague-Dawley rats were utilized for the experiments. The animals were acclimatized to the environmental conditions before starting the experiment. The animals were housed individually and were allowed free access to water and rodent food. […] The suppositories were prepared according to the fusion method, using a polypeg suppository base ([…]., USA). […] Using a microwave, the suppository base was melted in a small beaker for 3 min and then transferred and kept into a water bath at a temperature of 55° C. The proper amount of above reagent was added to the liquefied base and meticulously crushed with a smooth rounded-end glass rod for about 20 min to make the solution to be even and clear. A pipette tip was used to suck some amount of solution and push it into a plastic tube with a diameter of 3.5 mm, and the tube was immediately left on the flat surface of an ice bucket. The suppository turned to white in color when it was solid. The moulded suppository was then pushed out of the tube using a round rod. […] After 30 min of cooling at room temperature, the suppositories were stored at 4° C. in a closed chamber until use. They were left to reach room temperature before use. The day after the last treatment the rats were overnight fasted and then sacrificed. Macroscopic measurement (genital hiatus, vaginal length) were taken and the vagina was dissected out carefully to avoid any injury to the vagina. The mid section of the vagina was utilized for histology (H and E stain, Masson's trichrome stain) and immunofluorescence and the rest of the vagina was used for RNA extraction and RT-PCR.

**Q.** What does the source list for `C[C@]12CC[C@@H]3c4ccc(O)cc4CC[C@H]3[C@@H]1CC[C@@H]2O` [Estradiol]?
**A.** vaginal epithelial thickness ([1]; mean±SD, placebo 57±18): 140±54 μm; vaginal muscularis thickness ([1]; mean±SD, placebo 121±44): 124±53 μm; vaginal lamina propria thickness ([1]; mean±SD, placebo 179±71): 152±80 μm; vaginal thickness (all three layers of the vagina) ([1]; mean±SD, placebo 358±86): 417±82 μm; vaginal epithelial cornification rate ([1]; placebo 0%): 100%; lamina propria collagen fiber compactness ([1]; scale 0-5 (0=loose, 5=tight), mean±SD, placebo 4.5±0.6): 1.6±0.6 relative units; ratio of vaginal Col1a1 to Col3a1 mRNA expression ([2]; placebo 0.78±0.2): 0.70±0.4 relative units; ratio of vaginal Col1a1 to Col5a1 mRNA expression ([2]; placebo 4.3±1.9): 5.3±1.2 relative units; ratio of vaginal Collagen I to Collagen III protein expression ([3]; placebo 1.16±0.2): 1.08±0.2 relative units; ratio of vaginal Collagen I to Collagen V protein expression ([3]; placebo 1.28±0.3): 1.74±0.5 relative units; genital hiatus (distance between the external urethral meatus and the mid anus) ([4]; placebo 12.6±1.1): 16.0±1.4 mm; vaginal length ([4]; placebo 14.1±1.1): 18.7±1.5 mm
